Several values for one entry are separate records, joined by “and”; a condition that tells them apart may be missing. Equal entries are not always repeated.
System: 565232-114-T-J1-PDC complex spheroid viability
Assay: Anticancer human tumor 565232-114-T-J1-PDC patient-derived bladder carcinoma cell line growth inhibition [CLK]
Settings: for viability, T/C: stronger effect = lower value
How it was run: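 Multi-cell-type spheroids combined patient-derived tumor cells with HUVEC endothelial cells and human mesenchymal stem cells. Paired agents were dosed in half-log steps down from about clinical Cmax, or from 10 microM where Cmax was unknown.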
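Further: spheroids exposed to compounds for 7 days before readout.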
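Wherever viability, T/C is given: 100% = DMSO vehicle wells with luminescence normalized to vehicle control.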

CC(C)CC(NC(=O)C(Cc1ccccc1)NC(=O)c1cnccn1)B(O)O (stereo unspecified) + CNC(=O)c1ccc(Nc2nc(OC3CCCC3)c3c(-c4ccc5nc(C)oc5c4)c[nH]c3n2)c(OC)c1 was tested, and the IC50 (curve of first compound, second compound 0.0316 µM) was 4.66 nM, the IC50 (curve of first compound, second compound 0.1 µM) was 1.01 nM and the IC50 (curve of first compound, second compound 0.316 µM) was less than 0.949 nM. The IC50 (curve of first compound, second compound 1 µM) was less than 0.949 nM, the IC50 (curve of first compound, second compound 3.16 µM) was less than 0.949 nM and the IC50 (curve of first compound, second compound 10 µM) was less than 0.949 nM. For the same molecule, the viability, T/C (second compound 0.0316 µM, first compound 0.000949 µM) was 81%, the viability, T/C (second compound 0.0316 µM, first compound 0.003 µM) was 80.1% and the viability, T/C (second compound 0.0316 µM, first compound 0.00949 µM) was 1.47%. For the same molecule, the viability, T/C (second compound 0.0316 µM, first compound 0.03 µM) was 0.95%, the viability, T/C (second compound 0.0316 µM, first compound 0.0949 µM) was 0.67% and the viability, T/C (second compound 0.0316 µM, first compound 0.3 µM) was 1.42%. It also gave a viability, T/C (second compound 0.1 µM, first compound 0.000949 µM) of 50.7%, a viability, T/C (second compound 0.1 µM, first compound 0.003 µM) of 42.4% and a viability, T/C (second compound 0.1 µM, first compound 0.00949 µM) of 1.02%. For the same molecule, the viability, T/C (second compound 0.1 µM, first compound 0.03 µM) was 0.74%, the viability, T/C (second compound 0.1 µM, first compound 0.0949 µM) was 0.79% and the viability, T/C (second compound 0.1 µM, first compound 0.3 µM) was 0.53%. It also gave a viability, T/C (second compound 0.316 µM, first compound 0.000949 µM) of 31.1%, a viability, T/C (second compound 0.316 µM, first compound 0.003 µM) of 24.6% and a viability, T/C (second compound 0.316 µM, first compound 0.00949 µM) of 0.97%. The viability, T/C (second compound 0.316 µM, first compound 0.03 µM) was 0.75%, the viability, T/C (second compound 0.316 µM, first compound 0.0949 µM) was 3.5% and the viability, T/C (second compound 0.316 µM, first compound 0.3 µM) was 0.65%. It also gave a viability, T/C (second compound 1 µM, first compound 0.000949 µM) of 22.1%, a viability, T/C (second compound 1 µM, first compound 0.003 µM) of 23.1% and a viability, T/C (second compound 1 µM, first compound 0.00949 µM) of 0.93%. For the same molecule, the viability, T/C (second compound 1 µM, first compound 0.03 µM) was 0.66%, the viability, T/C (second compound 1 µM, first compound 0.0949 µM) was 0.67% and the viability, T/C (second compound 1 µM, first compound 0.3 µM) was 1.42%. The viability, T/C (second compound 3.16 µM, first compound 0.000949 µM) was 19.6%, the viability, T/C (second compound 3.16 µM, first compound 0.003 µM) was 12.3% and the viability, T/C (second compound 3.16 µM, first compound 0.00949 µM) was 0.72%. It also gave a viability, T/C (second compound 3.16 µM, first compound 0.03 µM) of 1.66%, a viability, T/C (second compound 3.16 µM, first compound 0.0949 µM) of 0.65% and a viability, T/C (second compound 3.16 µM, first compound 0.3 µM) of 1.37%. It also gave a viability, T/C (second compound 10 µM, first compound 0.000949 µM) of 19.5%, a viability, T/C (second compound 10 µM, first compound 0.003 µM) of 10.6% and a viability, T/C (second compound 10 µM, first compound 0.00949 µM) of 1.82%. It also gave a viability, T/C (second compound 10 µM, first compound 0.03 µM) of 0.61%, a viability, T/C (second compound 10 µM, first compound 0.0949 µM) of 0.51% and a viability, T/C (second compound 10 µM, first compound 0.3 µM) of 1.99%.

In the case of O=c1[nH]cc(F)c(=O)[nH]1, the viability, T/C (compound 0.0316 µM) is reported as 91.2% and 106%, the viability, T/C (compound 0.1 µM) is reported as 80.1% and 80.5% and the viability, T/C (compound 0.316 µM) is reported as 80.7% and 124%. For the same molecule, the viability, T/C (compound 1 µM) was 88.1% and 93.1%, the viability, T/C (compound 3.16 µM) was 134% and 80.6% and the viability, T/C (compound 10 µM) was 131% and 71.9%. The IC50 (curve of compound) was greater than 10000 nM.

With CCCS(=O)(=O)Nc1ccc(F)c(C(=O)c2c[nH]c3ncc(-c4ccc(Cl)cc4)cc23)c1F the viability, T/C (compound 0.0316 µM) was 81.4%, the viability, T/C (compound 0.1 µM) was 88.2% and the viability, T/C (compound 0.316 µM) was 101%. The viability, T/C (compound 1 µM) was 104%, the viability, T/C (compound 3.16 µM) was 113% and the viability, T/C (compound 10 µM) was 21.5%. It also gave an IC50 (curve of compound) of 6490 nM.

For CC(C)CC(NC(=O)C(Cc1ccccc1)NC(=O)c1cnccn1)B(O)O (stereo unspecified), the viability, T/C (compound 0.000949 µM) was 97.2% and 89.6%, the viability, T/C (compound 0.003 µM) was 85.3% and 89.2% and the viability, T/C (compound 0.00949 µM) was 10.3% and 1.88%. The viability, T/C (compound 0.03 µM) was 4.99% and 0.69%, the viability, T/C (compound 0.0949 µM) was 2.74% and 2.59% and the viability, T/C (compound 0.3 µM) was 1.61% and 0.54%. For the same molecule, the IC50 (curve of compound) was 5.16 nM and 5.03 nM.

In the case of C=CC(=O)Nc1cc(Nc2nccc(-c3cn(C)c4ccccc34)n2)c(OC)cc1N(C)CCN(C)C, the viability, T/C (compound 0.000949 µM) is reported as 93.7% and 95.9%, the viability, T/C (compound 0.003 µM) is reported as 76% and 82.3% and the viability, T/C (compound 0.00949 µM) is reported as 101% and 91.3%. The viability, T/C (compound 0.03 µM) was 104% and 89.6%, the viability, T/C (compound 0.0949 µM) was 87.5% and 109% and the viability, T/C (compound 0.3 µM) was 112% and 110%. For the same molecule, the IC50 (curve of compound) was greater than 300 nM.

With CCc1c2c(nc3ccc(O)cc13)-c1cc3c(c(=O)n1C2)COC(=O)[C@]3(O)CC the viability, T/C (compound 0.00316 µM) was 91.1% and 106%, the viability, T/C (compound 0.01 µM) was 76.9% and 89.2% and the viability, T/C (compound 0.0316 µM) was 66.4% and 18%. The viability, T/C (compound 0.316 µM) was 18.8% and 5.03%, the viability, T/C (compound 1 µM) was 5.24% and 1.76% and the IC50 (curve of compound) was 65.5 nM and 18.9 nM.

From PubChem BioAssay AID2060612 (Molecular Pharmacology Branch, DTP, NCI, 2025)
